Paper PMC9609996, “SAR Study and Molecular Mechanism Investigation of Novel Naphthoquinone-furan-2-cyanoacryloyl Hybrids with Antitumor Activity” (Pharmaceutics, 2022)

Columns and labels:
Format in all cases: cell-based, human
HeLa = assay: CCK-8 anti-proliferation assay, HeLa; conditions: 20 μM, mean ± SD; for inhibition at 20 µM: Homo sapiens, read-out: Inhibition Rate (%) at 20 μM HeLa
Protocol: (§1) Human cervical cancer HeLa, human prostate cancer PC3, human colonic carcinoma HCT116, human lung carcinoma A549, human breast cancer MDA-MB-231, mouse melanoma B16, human ovarian cancer SKOV3, human hepatoma Hep3B, and human liver L02 cells were purchased from the Cell Bank of Shanghai Institute of Biochemistry and Cell Biology, Chinese Academy of Sciences (Shanghai, China). The HeLa, A549, B16, PC3, MDA-MB-231, HCT116, and L02 cells were cultured in Dulbecco’s modified Eagle medium (DMEM, Gibco Inc.; Gaithersburg, MD, USA). All cultures were supplied with 10% fetal bovine serum (FBS; YHSM, Beijing, China), 100 IU/mL of penicillin, and 100 μg/mL of streptomycin, and cells were incubated at 37 °C in an atmosphere of 5% CO2.
(§2) A CCK-8 kit (MCE, USA) was used to perform a CCK-8 assay. Cells were plated and grown in the 96-well plates for the indicated period (48 h) in the incubator, followed by an incubation with the CCK-8 solutions for 1–4 h. Subsequently, the absorbance (450 nm) was measured by a microplate reader. The median inhibitory concentration (IC50) was determined from the dose–response curve. Experiments were performed in a triplicate.

PC3 = assay: CCK-8 anti-proliferation assay, PC3; conditions: mean ± SD; for inhibition at 20 µM: Homo sapiens, PC-3, 20 μM, read-out: Inhibition Rate (%) at 20 μM PC3
Protocol: as §1, §2

A549 = assay: CCK-8 anti-proliferation assay, A549; conditions: mean ± SD; for inhibition at 20 µM: Homo sapiens, A549, 20 μM, read-out: Inhibition Rate (%) at 20 μM A549
Protocol: as §1, §2

HCT116 = assay: CCK-8 anti-proliferation assay, HCT116; conditions: mean ± SD; for inhibition at 20 µM: Homo sapiens, HCT-116, 20 μM, read-out: Inhibition Rate (%) at 20 μM HCT116
Protocol: as §1, §2

Molecule | inhibition at 20 µM (HeLa) [%] | inhibition at 20 µM (PC3) [%] | inhibition at 20 µM (A549) [%] | inhibition at 20 µM (HCT116) [%] | Inhibition Rate (%) at 20 μM HeLa (HeLa) [%] | Inhibition Rate (%) at 20 μM PC3 (PC3; 20 μM) [%] | Inhibition Rate (%) at 20 μM A549 (A549; 20 μM) [%] | Inhibition Rate (%) at 20 μM HCT116 (HCT116; 20 μM) [%]
COc1cc(-c2ccc(/C=C(\C#N)C(=O)NCc3cccc(C(F)(F)F)c3)o2)c(OC)c2ccccc12 [Compound 4g, (E)-2-cyano-3-(5-(1,4-dimethoxynaphthalen-2-yl)furan-2-yl)-N-(3-(trifluoromethyl)benzyl)acrylamide] | 16.1 ± 0.17 | 15.38 ± 0.01 | 4.87 ± 0.3 | 7.69 ± 0.02 |  |  |  | 
N#C/C(=C\c1ccc(C2=CC(=O)c3ccccc3C2=O)o1)C(=O)NC1CCN(Cc2ccccc2)CC1 [Compound 5a, (E)-N-(1-benzylpiperidin-4-yl)-2-cyano-3-(5-(1,4-dioxo-1,4-dihydronaphthalen-2-yl)furan-2-yl)acrylamide] | 10.4 ± 0.41 | 3.7 ± 0.19 | 13.3 ± 0.17 | 8.36 ± 0.26 |  |  |  | 
COC(=O)c1ccc(-c2cc(OC)c3ccccc3c2OC)o1 [Compound 6, Methyl 5-(1,4-dimethoxynaphthalen-2-yl)furan-2-carboxylate] | 27 ± 0.32 | 21.6 ± 0.83 | 21.3 ± 0.45 | 16.78 ± 0.07 |  |  |  | 
(E)-2-cyano-3-(5-(1,4-dioxo-1,4-dihydronaphthalen-2-yl)furan-2-yl)-N-(3-(trifluoromethyl)phenyl)acrylamide [Compound 5g] |  |  |  |  | 27.98 ± 0.36 | 11.20 ± 0.02 | 32.35 ± 0.95 | 28.25 ± 0.04
CC1(C)CC(NC(=O)/C(C#N)=C/c2ccc(C3=CC(=O)c4ccccc4C3=O)o2)CC(C)(C)N1 [Compound 5e, (E)-2-cyano-3-(5-(1,4-dioxo-1,4-dihydronaphthalen-2-yl)furan-2-yl)-N-(2,2,6,6-tetramethylpiperidin-4-yl)acrylamide] | 29.73 ± 0.07 | 19.3 ± 0.28 | 19.8 ± 0.32 | 5.97 ± 95 |  |  |  | 
COc1cc(-c2ccc(C(=O)NC3CCC(F)(F)CC3)o2)c(OC)c2ccccc12 [Compound 8f, N-(4,4-difluorocyclohexyl)-5-(1,4-dimethoxynaphthalen-2-yl)furan-2-carboxamide] | 30.1 ± 0.39 | 17.72 ± 0.12 | 28.3 ± 0.33 | 27.19 ± 0.15 |  |  |  | 
COc1cc(-c2ccc(/C=C(\C#N)C(=O)NC3CCN(Cc4ccccc4)CC3)o2)c(OC)c2ccccc12 [Compound 4a, (E)-N-(1-benzylpiperidin-4-yl)-2-cyano-3-(5-(1,4-dimethoxynaphthalen-2-yl)furan-2-yl)acrylamide] | 13.6 ± 0.15 | 15.5 ± 0.17 | 16.3 ± 0.22 | 5.69 ± 0.23 |  |  |  | 
CC(NC(=O)c1ccc(C2=CC(=O)c3ccccc3C2=O)o1)c1ccccc1 (stereo not drawn) [Compound 9b, 5-(1,4-Dioxo-1,4-dihydronaphthalen-2-yl)-N-(1-phenylethyl)furan-2-carboxamide] | 18.65 ± 0.16 | 12.82 ± 0.01 | 8.8 ± 0.04 | 7.22 ± 0.34 |  |  |  | 
COc1cc(-c2ccc(/C=C(\C#N)C(=O)NCCN3CCCC3)o2)c(OC)c2ccccc12 [Compound 4i, (E)-2-cyano-3-(5-(1,4-dimethoxynaphthalen-2-yl)furan-2-yl)-N-(2-(pyrrolidin-1-yl)ethyl)acrylamide] | 35 ± 0.41 | 12.29 ± 0.12 | 13.9 ± 0.87 | 29.05 ± 0.08 |  |  |  | 
COc1cc(-c2ccc(C(=O)NCCC(=O)N3CCOCC3)o2)c(OC)c2ccccc12 [Compound 8c, 5-(1,4-Dimethoxynaphthalen-2-yl)-N-(3-morpholino-3-oxopropyl)furan-2-carboxamide] |  | 4.65 ± 0.56 | 14.1 ± 0.32 | 4.73 ± 0.47 |  |  |  | 
COc1cc(-c2ccc(/C=C(\C#N)C(=O)N3CCc4ccccc4C3)o2)c(OC)c2ccccc12 [Compound 4b, (E)-3-(5-(1,4-dimethoxynaphthalen-2-yl)furan-2-yl)-2-(1,2,3,4-tetrahydroisoquinoline-2-carbonyl)acrylonitrile] | 11.71 ± 0.04 | 3.88 ± 0.13 | 24.2 ± 0.31 | 19.6 ± 0.65 |  |  |  | 
COc1cc(-c2ccc(/C=C(\C#N)C(=O)N3CC4CCCCC4C3)o2)c(OC)c2ccccc12 (stereo not drawn) [Compound 4f, (E)-3-(5-(1,4-dimethoxynaphthalen-2-yl)furan-2-yl)-2-(octahydro-1H-isoindole-2-carbonyl)acrylonitrile] |  | 11.8 ± 0.79 |  | 43.7 ± 0.84 |  |  |  | 
N#C/C(=C\c1ccc(C2=CC(=O)c3ccccc3C2=O)o1)C(=O)NCCc1cccs1 [Compound 5d, (E)-2-cyano-3-(5-(1,4-dioxo-1,4-dihydronaphthalen-2-yl)furan-2-yl)-N-(2-(thiophen-2-yl)ethyl)acrylamide] | 5.61 ± 0.24 | 15.5 ± 0.2 | 17.2 ± 0.35 | 26.8 ± 0.94 |  |  |  | 
N#C/C(=C\c1ccc(C2=CC(=O)c3ccccc3C2=O)o1)C(=O)N1CC2CCCCC2C1 (stereo not drawn) [Compound 5f, (E)-3-(5-(1,4-dioxo-1,4-dihydronaphthalen-2-yl)furan-2-yl)-2-(octahydro-1H-isoindole-2-carbonyl)acrylonitrile] | 1.9 ± 0.72 | 11.13 ± 0.03 | 13.9 ± 0.14 | 3.41 ± 0.26 |  |  |  | 
COc1cc(-c2ccc(C(=O)NCCCn3ccnc3)o2)c(OC)c2ccccc12 [Compound 8g, N-(3-(1H-imidazol-1-yl)propyl)-5-(1,4-dimethoxynaphthalen-2-yl)furan-2-carboxamide] | 18.28 ± 0.03 | 7.59 ± 0.72 | 26.89 ± 0.16 | 27.46 ± 0.16 |  |  |  | 
COc1cc(-c2ccc(/C=C(\C#N)C(=O)NCCc3cccs3)o2)c(OC)c2ccccc12 [Compound 4d, (E)-2-cyano-3-(5-(1,4-dimethoxynaphthalen-2-yl)furan-2-yl)-N-(2-(thiophen-2-yl)ethyl)acrylamide] | 11.6 ± 0.79 | 7.17 ± 0.31 | 21.58 ± 0.02 | 10.8 ± 0.49 |  |  |  | 
N#C/C(=C\c1ccc(C2=CC(=O)c3ccccc3C2=O)o1)C(=O)N1CCc2ccccc2C1 [Compound 5b, (E)-3-(5-(1,4-dioxo-1,4-dihydronaphthalen-2-yl)furan-2-yl)-2-(1,2,3,4-tetrahydroisoquinoline-2-carbonyl)acrylonitrile] | 20.5 ± 0.28 | 17.8 ± 0.33 | 18.4 ± 0.82 | 8.83 ± 0.1 |  |  |  | 
COc1cc(-c2ccc(C(=O)NC3CCN(Cc4ccccc4)CC3)o2)c(OC)c2ccccc12 [Compound 8a, N-(1-benzylpiperidin-4-yl)-5-(1,4-dimethoxynaphthalen-2-yl)furan-2-carboxamide] | 20.86 ± 0.18 | 15.5 ± 0.29 | 24.1 ± 0.35 | 12.4 ± 0.15 |  |  |  | 
O=C(NC1CCN(Cc2ccccc2)CC1)c1ccc(C2=CC(=O)c3ccccc3C2=O)o1 [Compound 9a, N-(1-benzylpiperidin-4-yl)-5-(1,4-dioxo-1,4-dihydronaphthalen-2-yl)furan-2-carboxamide] | 42.87 ± 0.22 | 2.39 ± 0.09 | 20.7 ± 0.49 | 33.71 ± 0.13 |  |  |  | 
O=C(NCCC(=O)N1CCOCC1)c1ccc(C2=CC(=O)c3ccccc3C2=O)o1 [Compound 9c, 5-(1,4-Dioxo-1,4-dihydronaphthalen-2-yl)-N-(3-morpholino-3-oxopropyl)furan-2-carboxamide] | 5.91 ± 0.29 | 1.45 ± 0.86 | 15.1 ± 0.31 | 37.21 ± 0.08 |  |  |  | 
COc1cc(-c2ccc(C(=O)Nc3ccc(CN4CCN(C)CC4)c(C(F)(F)F)c3)o2)c(OC)c2ccccc12 [Compound 8h, 5-(1,4-Dimethoxynaphthalen-2-yl)-N-(4-((4-methylpiperazin-1-yl)methyl)-3-(trifluoromethyl)phenyl)furan-2-carboxamide] | 28.47 ± 0.1 | 16.5 ± 0.97 | 21.6 ± 0.39 | 19.6 ± 0.34 |  |  |  | 
COC(=O)c1ccc(C2=CC(=O)c3ccccc3C2=O)o1 [Compound 6a, Methyl 5-(1,4-dioxo-1,4-dihydronaphthalen-2-yl)furan-2-carboxylate] | 26.1 ± 0.66 | 6.93 ± 0.79 | 2.15 ± 0.37 | 17.67 ± 0.06 |  |  |  | 
COc1cc(-c2ccc(C(=O)NC(C)c3ccccc3)o2)c(OC)c2ccccc12 (stereo not drawn) [Compound 8b, 5-(1,4-Dimethoxynaphthalen-2-yl)-N-(1-phenylethyl)furan-2-carboxamide] | 19.33 ± 0.18 | 24.99 ± 0.19 | 7.87 ± 0.11 | 2.17 ± 0.02 |  |  |  | 
COc1cc(-c2ccc(C(=O)NCc3cc(C(F)(F)F)ccc3F)o2)c(OC)c2ccccc12 [Compound 8d, 5-(1,4-Dimethoxynaphthalen-2-yl)-N-(2-fluoro-5-(trifluoromethyl)benzyl)furan-2-carboxamide] | 22.7 ± 0.27 | 22.45 ± 0.05 | 19.35 ± 0.07 | 14.5 ± 0.24 |  |  |  | 
